The values that follow come from patent US10300000B2, “Inhibition of melanogenesis by chemically modified curcumins” (The Research Foundation for The State University of New York, priority 2016, dated 2019).

Molecules are shown by their SMILES.

The test system of experiment [1] is B16F10 mouse melanoma cells. In kind it is cell-based. To be noted: B16F10, 5 μM, 48 hours, MTS. As to the method: In order to test the four CMCs (CMC2.14, CMC2.24, CMC2.5 and CMC2.23) alongside PC and THC, for their effects on melanin content, we first screened their nontoxic concentrations using MTS cytotoxicity (Promega CellTiter Aqueous One) assay. MTS is a tetrazolium salt which is reduced to purple colored formazan upon reaction with mitochondrial dehydrogenases. Briefly, B16F10 cells were seeded at 4×10^3 cells/well in 96-well plates for 24 hrs. […] Controls were treated with 0.16% DMSO. At the end of 48 hours, medium was aspirated and replaced by 100 μl of fresh media. MTS (20 μl) was added and incubated for 40 minutes and absorbance read at 490 nm using a Versamax® microplate reader. Cell viability was calculated from the absorbance values relative to control groups and expressed in %.

The test system of experiment [2] is αMSH-stimulated B16F10 cells. Description: Melanin content in αMSH-stimulated B16F10 cells. In kind it is cell-based, mouse. As to the method:
(§1) B16F10 cells were seeded at 1×10^5 cells/well in 12-well plates and incubated for 24 hours. The test compounds were then added in presence or absence of αMSH (100 nM), and further incubated for another 48 hours. For evaluation of melanin content, cells were trypsinized, washed in PBS and then 250 μL of 1N NaOH was added and heated to 70° C. to solubilize melanin. The aliquots were then transferred to a 96-well plate and absorbance was read at 475 nm using microplate reader. The absorbance of melanin was normalized by total protein contents and reported as % of control.

Experiment [3] has as its system intracellular ROS in B16F10 cells. Description: Intracellular ROS assay (H2DCFDA) in B16F10 cells. In kind it is cell-based, mouse. The following applies: B16F10, 25 μM, 48 hours. As to the method:
Intracellular ROS generation was quantified using 2′,7′-dichlorodihydrofluorescein diacetate (H2DCFDA), a non-fluorescent dye which is trapped intracellularly by cleavage by intracellular esterases after reaction with reactive oxygen species (ROS); only the product, DCF, is fluorescent. For measuring intracellular ROS, B16F10 cells were seeded in 24 well plates at 4×10^4 cells/well. After 24 hours, media was aspirated and PC, THC and CMCs were added to the wells at different concentrations and further incubated for 48 hours. At the end of the incubations, the media was aspirated and cells were washed with PBS. DCFDA (Molecular Probes) was dissolved in DMSO to make 10 mM stock. DCFDA dye working stock (50 μM) was prepared by diluting the stock in DMEM (serum-free, phenol-red free and sodium pyruvate free) media and added to cells and further incubated for 45 minutes at 37° C. The cells were then washed with DPBS and fluorescence was read in bottom read mode, using a fluorescence microplate reader (Gemini EM Spectramax, Molecular Devices) set to excitation and emission wavelengths of 485 nm and 535 nm, respectively. Data was expressed as relative fluorescence % of treated vs. control.

For experiment [4], the system named is αMSH-stimulated B16F10 cells. Description: Melanin content in αMSH-stimulated B16F10 cells. To be noted: 48 hours. The arrangement: unit of the concentration uncertain. In kind it is cell-based, mouse. As to the method:
as §1

For `COC(=O)C(C(=O)/C=C/c1ccc(O)cc1)C(=O)/C=C/c1ccc(O)cc1` [CMC2.14], the “increase of cell proliferation” value in experiment [1] amounted to 26.2%.
Consider `COc1cc(/C=C/C(=O)C(C(=O)/C=C/c2ccc(O)c(OC)c2)C(=O)Nc2ccccc2)ccc1O` [CMC2.23], for which the “lightening of cell pellets” value in experiment [2] is recorded as “visible lightening”.
Regarding `COC(=O)C(C(=O)C=Cc1ccc(O)c(OC)c1)C(=O)C=Cc1ccc(O)c(OC)c1` (centres unmarked) [CMC2.5, 4-methoxycarbonyl curcumin], in experiment [3], the “reduction of intracellular ROS” value stood at 23%. Further, the reduction of melanin came to 36% in experiment [4] (αMSH-stimulated B16F10, 20 (unit uncertain) as printed) and 42% in experiment [4] (αMSH-stimulated B16F10, 25 (unit uncertain) as printed).
